From PubChem BioAssay AID1259407 (Chemical Carcinogenesis Research Information System (CCRIS), 2018) come the findings set out here.

Activity calls are given as the source filed them. No rule for the calls is given here.

The test system of the data set is CCRIS mutagenicity, Ames/micronucleus/aberration tests. As to the kind of experiment: CCRIS mutagenicity studies.
The mark [1] stands for this setting: Test System: AMES SALMONELLA TYPHIMURIUM, Strain/Indicator: TA98, Metabolic Activation: NONE, Method: STANDARD PLATE.
The mark [2] stands for this setting: Test System: AMES SALMONELLA TYPHIMURIUM, Strain/Indicator: TA100, Metabolic Activation: NONE, Method: STANDARD PLATE.
[3] abbreviates: Test System: AMES SALMONELLA TYPHIMURIUM, Strain/Indicator: TA100, Metabolic Activation: RAT, LIVER, S-9, AROCLOR 1254, Method: STANDARD PLATE.
The mark [4] stands for this setting: Test System: AMES SALMONELLA TYPHIMURIUM, Strain/Indicator: TA98, Metabolic Activation: NONE, Method: PREINCUBATION
Setting [5] is: Test System: AMES SALMONELLA TYPHIMURIUM, Strain/Indicator: TA100, Metabolic Activation: NONE, Method: PREINCUBATION

Regarding `c1ccc2cc3c(ccc4ccccc43)cc2c1`, the mutagenic call runs as follows: under setting [1], “inactive; negative”; (Test System: AMES SALMONELLA TYPHIMURIUM, Strain/Indicator: TA98, Method: STANDARD PLATE) “active; positive”; under setting [2], “inactive; negative”; (Test System: AMES SALMONELLA TYPHIMURIUM, Strain/Indicator: TA100, Metabolic Activation: RAT, INTACT HEPATOCYTES, AROCLOR 1254, Method: PREINCUBATION) “active; positive”; (Test System: AMES SALMONELLA TYPHIMURIUM, Strain/Indicator: TA100, Metabolic Activation: RAT, LIVER, S-9, 3-METHYLCHOLANTHRENE, Method: STANDARD PLATE) “active; positive”; under setting [3], “active; positive”. The mutagenic call reads like this: (Test System: AMES SALMONELLA TYPHIMURIUM, Strain/Indicator: TA100, Metabolic Activation: RAT, LIVER, S-9, PHENOBARBITAL, Method: STANDARD PLATE) “inactive; negative”; (Test System: AMES SALMONELLA TYPHIMURIUM, Strain/Indicator: TA100, Metabolic Activation: RAT, NADPH-FORTIFIED HOMOGENIZED HEPATOCYTES, AROCLOR 1254, Method: PREINCUBATION) “active; positive”; (Test System: AMES SALMONELLA TYPHIMURIUM, Strain/Indicator: TA100, Metabolic Activation: RAT, SONICATED HEPATOCYTES, AROCLOR 1254, Method: PREINCUBATION) “active; positive”; (Test System: AMES SALMONELLA TYPHIMURIUM, Strain/Indicator: TA100, Method: STANDARD PLATE) “active; positive”; (Test System: AMES SALMONELLA TYPHIMURIUM, Strain/Indicator: TA1537, Metabolic Activation: MOUSE, LIVER, S-9, Method: STANDARD PLATE) “active; positive”; (Test System: AMES SALMONELLA TYPHIMURIUM, Strain/Indicator: TA1538, Metabolic Activation: NONE, Method: STANDARD PLATE) “inactive; negative”. In addition, the mutagenic call was “inactive; negative” (Test System: AMES SALMONELLA TYPHIMURIUM, Strain/Indicator: TA1538, Metabolic Activation: RAT, LIVER, S-9, AROCLOR 1254, Method: STANDARD PLATE); “active; positive” (Test System: AMES SALMONELLA TYPHIMURIUM, Strain/Indicator: TA1538, Metabolic Activation: RAT, LIVER, S-9, PHENOBARBITAL, Method: STANDARD PLATE); “active; positive” (Test System: CHINESE HAMSTER V-79, Strain/Indicator: V-79/6-THIOGUANINE, Metabolic Activation: RAT, LIVER, S-9, PHENOBARBITAL, Method: STANDARD PLATE); “active; positive” (Test System: CHINESE HAMSTER V-79, Strain/Indicator: V-79/OUABAIN, Metabolic Activation: CELL-MEDIATED, Method: STANDARD PLATE); “inactive; negative” (Test System: E. COLI, Strain/Indicator: WP2 UVRA, Metabolic Activation: HAMSTER, LIVER, S-9, AROCLOR 1254, Method: STANDARD PLATE); “inactive; negative” (Test System: E. COLI, Strain/Indicator: WP2 UVRA, Metabolic Activation: HAMSTER, LIVER, S-9, Method: STANDARD PLATE). Moreover, the mutagenic call (Test System: E. COLI, Strain/Indicator: WP2 UVRA, Metabolic Activation: MOUSE, LIVER, S-9, AROCLOR 1254, Method: STANDARD PLATE) was “inactive; negative”; the mutagenic call (Test System: E. COLI, Strain/Indicator: WP2 UVRA, Metabolic Activation: MOUSE, LIVER, S-9, Method: STANDARD PLATE) is “inactive; negative”; the mutagenic call (Test System: E. COLI, Strain/Indicator: WP2 UVRA, Metabolic Activation: NONE, Method: STANDARD PLATE) is “inactive; negative”; the mutagenic call (Test System: E. COLI, Strain/Indicator: WP2 UVRA, Metabolic Activation: RAT, LIVER, S-9, AROCLOR 1254, Method: STANDARD PLATE) is “inactive; negative”; the mutagenic call (Test System: E. COLI, Strain/Indicator: WP2 UVRA, Metabolic Activation: RAT, LIVER, S-9, Method: STANDARD PLATE) was “inactive; negative”; the mutagenic call (Test System: MOUSE LYMPHOMA, Strain/Indicator: L5178Y (TK+/TK-), Metabolic Activation: NONE, Method: SUSPENSION/PLATE) is “active; positive”. Also, the mutagenic call (Test System: MOUSE LYMPHOMA, Strain/Indicator: L5178Y (TK+/TK-), Metabolic Activation: RAT, LIVER, S-9, AROCLOR 1254, Method: SUSPENSION/PLATE) was “active; positive” and the mutagenic call (Test System: MOUSE LYMPHOMA, Strain/Indicator: L5178Y (TK+/TK-), Metabolic Activation: RAT, LIVER, S-9, Method: SUSPENSION/PLATE) is “active; positive”.
Turning to `CSC(C)(C)C(=O)N[C@@H](CS)C(=O)O`, the mutagenic call is, setting by setting: under setting [4], “inactive; negative”; under setting [5], “inactive; negative”; (Test System: AMES SALMONELLA TYPHIMURIUM, Strain/Indicator: TA1535, Metabolic Activation: NONE, Method: PREINCUBATION) “inactive; negative”; (Test System: AMES SALMONELLA TYPHIMURIUM, Strain/Indicator: TA1537, Metabolic Activation: NONE, Method: PREINCUBATION) “inactive; negative”; (Test System: AMES SALMONELLA TYPHIMURIUM, Strain/Indicator: TA1538, Metabolic Activation: NONE, Method: PREINCUBATION) “inactive; negative”; (Test System: E. COLI, Strain/Indicator: WP2, Metabolic Activation: NONE, Method: PREINCUBATION) “inactive; negative”. Moreover, for the setting “Test System: E. COLI, Strain/Indicator: WP2 UVRA, Metabolic Activation: NONE, Method: PREINCUBATION”, the mutagenic call is “inactive; negative”.
With `O=C1C=Cc2ccc3c(ccc4ccccc43)c2C1=O`, the mutagenic call reads like this: under setting [1], “inactive; negative”; under setting [3], “active; positive”.
In the case of `CCCCCC[C@@H](O)[C@@H]1C2=C(C[C@H]([C@H](O)[C@@H]3CC=CC(=O)O3)CC3=C(C(=O)OC3=O)[C@@H]1O)C(=O)OC2=O`, the mutagenic call by setting is: under setting [5], “inactive; negative”; (Test System: AMES SALMONELLA TYPHIMURIUM, Strain/Indicator: TA100, Metabolic Activation: RAT, LIVER, S-9, PHENOBARBITAL, Method: PREINCUBATION) “inactive; negative”.
For the compound `CCc1c2ccccc2cc2c1c1c(c3ccccc32)O1`, the mutagenic call under setting [4] is “active; positive”.
As for `c1ccc2c(c1)cc1c3cccc4cccc(c5cccc2c51)c43`, the mutagenic call (Test System: HUMAN H1A1V2 CELLS, Strain/Indicator: TK LOCUS, Metabolic Activation: NONE, Method: SUSPENSION/PLATE) was “active; positive”.
With `Nc1cc(Cl)c(Cl)c(Cl)c1`, the mutagenic call under setting [1] was “inactive; negative”; the mutagenic call (Test System: AMES SALMONELLA TYPHIMURIUM, Strain/Indicator: TA98, Metabolic Activation: RAT, LIVER, S-9, AROCLOR 1254, Method: STANDARD PLATE) was “inactive; negative”; the mutagenic call under setting [2] was “inactive; negative”; the mutagenic call under setting [3] is “inactive; negative”.
Consider `CCCC(=O)Nc1snc2ccc(Cl)cc12`, for which the mutagenic call under setting [2] was “inactive; negative”; the mutagenic call (Test System: AMES SALMONELLA TYPHIMURIUM, Strain/Indicator: TA100, Metabolic Activation: S-9, Method: STANDARD PLATE) is “inactive; negative”; the mutagenic call (Test System: AMES SALMONELLA TYPHIMURIUM, Strain/Indicator: TA1537, Metabolic Activation: NONE, Method: STANDARD PLATE) was “inactive; negative”; the mutagenic call (Test System: AMES SALMONELLA TYPHIMURIUM, Strain/Indicator: TA1537, Metabolic Activation: S-9, Method: STANDARD PLATE) was “inactive; negative”.
Turning to `CCOC(=O)c1cc(Cc2ccc(N)c(C(=O)OCC)c2)ccc1N`, the mutagenic call was “inactive; negative” under setting [4]; “inactive; negative” (Test System: AMES SALMONELLA TYPHIMURIUM, Strain/Indicator: TA98, Metabolic Activation: RAT, LIVER, S-9, PCB, Method: PREINCUBATION); “inactive; negative” under setting [5].
